Holding throughout (assay): DTP human tumour cell line panel, 48 h
Assay [1] concerns UACC-62 melanoma.
For assay [2], the system named is UO-31 renal.
Assay [3] relates to SK-MEL-2 melanoma.
In assay [4] the test system is NCI-H23 lung.
The test system of assay [5] is SK-OV-3 ovarian.
In assay [6] the test system is M14 melanoma.
Assay [7] has as its system SF-295 CNS.
The test system of assay [8] is TK-10 renal.
For assay [9], the system named is T-47D breast.
Assay [10] has as its system EKVX NSCLC.

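1) Cells in 96-well plates. 2) Compound, 48 h, 5 concentrations. 3) Linear interpolation between surrounding doses. 4) Unreached endpoint = highest concentration. Abbreviation: GI50, concentration required for 50% inhibition of growth. The concentration for full growth arrest is given as TGI.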

The GI50 is the concentration that inhibits growth by half. One may read the TGI as the concentration at which net growth stops. With `O=c1oc2c(cc1-c1ccccc1)C(O)Oc1ccccc1-2` (centres undefined), the GI50 was 12.8 µM in assay [1]; 11.5 µM in assay [2]; 5.81 µM in assay [3]; 7.94 µM in assay [4]; 10.2 µM in assay [5]; 3.32 µM in assay [6]. For the same molecule, the GI50 was 8.79 µM in assay [7], 6.46 µM in assay [8], 4.41 µM in assay [9] and 28.1 µM in assay [10]. For the same molecule, the TGI was found to be 39.7 µM in assay [1]; 52.3 µM in assay [2]; 30.6 µM in [3]; 25 µM in assay [4]; 75.7 µM in assay [5]; 14.5 µM in assay [6]. Besides, the TGI in [7] is 97.1 µM; in assay [8], greater than 100 µM; in assay [9], 22.3 µM; in assay [10], greater than 100 µM.
Consider `CN(N=O)C(=O)Nc1ccc(C(=O)O)cc1`, for which the TGI in assay [1], in assay [2], in assay [3], in assay [4], in [5] and in assay [6] was greater than 100 µM in each case. Also, the TGI in [7], in [8], in [9] and in assay [10] was greater than 100 µM in each case.
On to `CNC1=CC(=O)C2=C(C1=O)C1C3=C(C(=O)C(Br)=C(OC)C3=O)C2c2ccccc21` (centres undefined), for which the GI50 in assay [1] is 1.47 µM; in assay [2], 1.98 µM; in assay [3] it was 3.03 µM; in assay [4] it was 4.44 µM; in [5] it was 2.15 µM; in assay [6], 6.76 µM. Besides, the GI50 in assay [7] is 2.85 µM; in assay [8] it was 7.56 µM; in [9], 1.44 µM; in [10] it was 1.53 µM. Besides, the concentration for total growth inhibition (TGI) in [1] is 3.89 µM; in assay [2], 5.87 µM; in assay [3], 14.1 µM; in assay [4], 16 µM; in assay [5] it was greater than 50 µM; in assay [6], 17.1 µM. The TGI in assay [7] came out at 10 µM; in assay [8], 26.2 µM; in assay [9], 15.7 µM; in [10] it was 3.31 µM.
For the molecule `CNC(C)[C@H]1CCC2C3CCC4C[C@@H](N(C)C(=O)c5ccccc5)CC[C@]4(C)C3CC[C@@]21C` (some centres undefined), the GI50 in assay [1] was 1.02 µM; in assay [2], 0.794 µM; in assay [3] it was 2.6 µM; in assay [4], 0.737 µM; in [5] it was 2.06 µM; in assay [6], 1.3 µM. Further, the GI50 was 1.25 µM in assay [7], 2.16 µM in [8], 0.37 µM in assay [9] and 0.613 µM in assay [10]. Besides, the TGI was determined as 2.64 µM in assay [1]; 2.69 µM in assay [2]; 5.4 µM in assay [3]; 4.96 µM in assay [4]; 5.29 µM in [5]; 2.95 µM in assay [6]. The TGI was found to be 3.36 µM in assay [7], 7.83 µM in assay [8], 4.26 µM in assay [9] and 6.3 µM in assay [10].
On to `Oc1c(Cl)cc(CN(Cc2cc(Cl)c(O)c(Cl)c2)C2CCCCC2)cc1Cl`, for which the total growth inhibition concentration (TGI) in assay [1], in assay [2], in assay [3], in [4], in [5] and in [6] was greater than 100 µM in each case. Besides, the TGI in assay [7], in assay [8], in [9] and in assay [10] was greater than 100 µM in each case.
For `CCOC(=O)Nc1ccc(C(=O)/C=C/c2ccccc2)cc1`, the GI50 was 20.1 µM in assay [1]; 26.9 µM in assay [2]; 25.9 µM in assay [3]; 23.7 µM in assay [4]; 26.3 µM in assay [5]; 19.1 µM in assay [6]. Moreover, the GI50 in assay [7] is 41.7 µM; in assay [8], 28.9 µM; in [9], 21.6 µM; in [10], 37.5 µM. Besides, the TGI is greater than 100 µM in [1]; greater than 100 µM in assay [2]; 69.7 µM in [3]; 61.1 µM in assay [4]; 77.5 µM in assay [5]; 44.3 µM in [6]. Also, the TGI in [7] is greater than 100 µM; in assay [8], 86.5 µM; in assay [9], greater than 100 µM; in assay [10] it was greater than 100 µM.
Consider `O=C(NCCNC(=O)c1ccc(F)cc1)Nc1ccc(-n2cc(-c3ccncc3)c(-c3ccc(Cl)c(O)c3)n2)cc1`, for which the GI50 in assay [1] was 0.555 µM; in [2], 2.4 µM; in [3], 0.738 µM; in assay [4], 0.587 µM; in [5], 0.746 µM; in assay [6] it was 0.288 µM. The GI50 is 0.354 µM in assay [7], 2.49 µM in [8], 0.884 µM in [9] and 1.36 µM in assay [10]. In addition, the TGI in assay [1] was 2.32 µM; in [2] it was greater than 100 µM; in [3] it was 4 µM; in [4], 7.77 µM; in [5], 48.5 µM; in assay [6], 1.25 µM. The TGI in assay [7] was 1.7 µM; in [9] it was 16 µM; in assay [10] it was greater than 100 µM.
On to `Oc1cc2c(cc1C(c1ccc3c(c1)OCO3)N1CCN(C(c3ccc4c(c3)OCO4)c3cc4c(cc3O)OCO4)CC1)OCO2` (centres undefined), for which the TGI stood at 27.5 µM in assay [1]; 29.3 µM in [2]; 41.6 µM in assay [3]; 35.4 µM in assay [4]; 94.8 µM in [5]; 27.5 µM in [6]. Further, the TGI in [7] stood at 33.2 µM; in [8] it was 43.8 µM; in [9], 34.6 µM; in assay [10] it was 98.6 µM.
As to `O=C(c1ccccc1)c1ccc(O)c2ncccc12`, the GI50 was 2.34 µM in assay [1]; 1.28 µM in assay [2]; 12 µM in assay [3]; 4.85 µM in assay [4]; 6.02 µM in assay [5]; 2.7 µM in assay [6]. For the same molecule, the GI50 in [7] was 3.78 µM; in [8], 6.99 µM; in assay [9], 3.14 µM; in assay [10], 3.09 µM. In addition, the TGI in assay [1] was determined as 10.6 µM; in assay [2], 13.5 µM; in assay [3], 43.3 µM; in assay [4], 19.6 µM; in [5], 19.1 µM; in [6] it was 19.5 µM. The TGI is greater than 100 µM in assay [7], greater than 100 µM in assay [8], 15.3 µM in assay [9] and 56.1 µM in [10].

(Values after PubChem BioAssay (NCI).)
